Source: paper PMC11089505, “Structural Elucidation and Antiviral Activity of Covalent Cathepsin L Inhibitors” (Journal of Medicinal Chemistry, 2024)
“And” between values parts separate entries of the source, which are not always exact repeats. Equal entries are not always repeated. Where two headings read alike, the source gives them in different places. Peptide text beside a SMILES is read from it.

Key:
CatL [1] = conditions: cited from earlier work; for IC50: Table S1, SI reference list
CatL [2] = target: T1, CatL (Homo sapiens, UniProt P07711, T223A); assay: NanoDSF, thermal stability of CatL; assay type: binding; conditions: for 2:1, Tm average (CatL): 2:1 compound to protein; for 20:1, Tm average (CatL): 20:1 compound to protein
T1 construct: made in house; host or cells: Komagataella pastoris strain GS115

[3] = tested on: SARS-CoV-2-GFP in Vero E6 cells; assay: microbe, parasite or virus in culture; assay type: cell-based
SARS-CoV-2 Mpro = SARS-CoV-2 Mpro (Severe acute respiratory syndrome coronavirus 2, UniProt P0DTD1); assay type: binding; conditions: 2:1 compound to protein
CatL [4] = target: T1, CatL; assay: CatL inhibition assay (Ki), substrate Z-RR-AMC; assay type: biochemical; conditions: read-out: Residual activity (Vi/V0)
Protocol: (§1) Experiments were performed in a solution of 50 mM sodium acetate, pH 4.0, 50 mM NaCl, 0.1% PEG 6000, and 5 mM DTT. Distinct assays with epoxide inhibitors at pH 6.0 were performed in 50 mM sodium phosphate buffer, 50 mM NaCl, 5 mM DTT, 0.1% PEG 6000, adjusted to pH 6.0.
(§2) M1000 pro plate reader (Tecan), the fluorescent peptide substrate Z-RR-AMC, and excitation and emission wavelengths of 370 and 460 nm, respectively.
(§3) At first, the inhibitor concentration span was optimized for each inhibitor and the assay buffer. For this initial screening, CatL (5 nM) was mixed with different concentrations of inhibitors (1 nM–50 μM) to determine the range of their inhibition. […] Reaction data were fitted to the […] in GraphPad Prism 9 software: Y = bottom + (top – bottom)/(1 + 10^∧((log IC50 – X) × HillSlope)); X is the log of dose or concentration, Y is the response (fluorescence signal), decreasing as X increases, top and bottom are the plateaus in the same units as Y, log IC50 same log units as X, HillSlope is the slope factor or called the Hill slope.

CatL [5] = target: T1, CatL; assay: CatL inactivation assay comparing epoxides at pH 6 and pH 4; assay type: biochemical
Protocol: as §1, §2, §3
Figure S7. Inactivation of CatL.
(1 picture or pasted object on this page, not shown here)

[6] = Cell viability assay (CellTiter-Blue); conditions: African green monkey
[7] = Severe acute respiratory syndrome coronavirus 2, Vero C1008, 24 h, read-out: EC50 (24 h)
[8] = Severe acute respiratory syndrome coronavirus 2, Vero C1008, 24 h, read-out: EC50 (after 24 h)
[9] = Severe acute respiratory syndrome coronavirus 2, Vero C1008, 48 h, read-out: EC50 (after 48 h)

T1 sequence (P07711 114-333 T223A): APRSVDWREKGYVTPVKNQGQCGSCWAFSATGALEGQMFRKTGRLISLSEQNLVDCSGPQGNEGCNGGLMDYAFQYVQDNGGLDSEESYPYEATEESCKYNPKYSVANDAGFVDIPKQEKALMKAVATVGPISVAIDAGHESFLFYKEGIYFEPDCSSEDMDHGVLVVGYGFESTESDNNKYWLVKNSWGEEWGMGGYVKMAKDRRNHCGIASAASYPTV

For `CSCCC(C=O)NC(=O)C(CC(C)C)NC(=O)C(CC(C)C)NC(C)=O` (stereo not drawn) [CI-II] (Ac-Leu-Leu-Met-aldehyde; configuration not given here), the Ki (CatL [1]; Sasaki et al., read-out: Ki) is listed as 0.6 nM.

For `CC(C)C[C@@H](C=O)NC(=O)[C@@H](NS(=O)(=O)c1ccc(F)cc1)C(C)C` [CI-VI, 2-[(4-Fluorophenyl)sulfonylamino]-3-methyl-N-(4-methyl-1-oxopentan-2-yl)butanamide], the IC50 (CatL [1]) is listed as 1.6 nM, the “ΔTm [K] for CatL, 2:1 ratio” value (CatL [2]) is listed as 15.2 ± 0.4 K and the “2:1, Tm average (CatL)” value (CatL [2]) is listed as 78.3 °C. The “20:1, Tm average (CatL)” value (CatL [2]) was 81.4 °C, the “ΔTm (for CatL), 2:1 compound to protein mixing ratio” value (CatL [2]; pH 5) was 15,2 ± 0,4 °C and 15.2 °C and the “ΔTm (for CatL), 20:1 compound to protein mixing ratio” value (CatL [2]; pH 5) was 18,3 ± 0,1 °C and 18.3 °C. The EC50 [3, 7] was 37.7 nM, the EC50 [3, 8] was 37.7 nM and the EC50 [3, 9] was 1330 nM. For the same compound, the “2:1, Tm average (Mpro)” value (SARS-CoV-2 Mpro) was 54.5 °C.

In the case of `CC[C@H](C)[C@H](NS(=O)(=O)c1cccc2ccccc12)C(=O)N[C@H](C=O)Cc1c[nH]c2ccccc12` [CLI-IV, 1-Naphthalenesulfonyl-Ile-Trp-aldehyde], the IC50 (CatL [1]) is listed as 1.9 nM, the remaining activity at 0.00028 µM (CatL [4]; CLI-IV 0.280 nM) is listed as 92.4% and the remaining activity at 0.0004 µM (CatL [4]; CLI-IV 0.400 nM) is listed as 94.2%. For the same compound, the remaining activity at 0.00058 µM (CatL [4]; CLI-IV 0.580 nM) was 89.3%, the remaining activity at 0.00082 µM (CatL [4]; CLI-IV 0.820 nM) was 92.1% and the remaining activity at 0.00168 µM (CatL [4]; CLI-IV 1.680 nM) was 78.4%. For the same compound, the remaining activity at 0.0024 µM (CatL [4]; CLI-IV 2.400 nM) was 60.1%, the remaining activity at 0.00343 µM (CatL [4]; CLI-IV 3.430 nM) was 40.4% and the remaining activity at 0.007 µM (CatL [4]; CLI-IV 7.000 nM) was 11%. For the same compound, the remaining activity at 0.01 µM (CatL [4]; CLI-IV 10.000 nM) was 5.5%, the EC50 [3, 7] was 7.3 nM and the EC50 [3, 8] was 7.26 nM. For the same compound, the EC50 ([3]; Severe acute respiratory syndrome coronavirus 2, Vero C1008, 48 h, read-out: EC50 (48 h)) was < 500 nM, the EC50 [3, 9] was 411 nM and the EC50 ([3]; read-out: EC50 (24 h)) was < 10 nM. For the same compound, the “2:1, Tm average (Mpro)” value (SARS-CoV-2 Mpro) was 54.6 °C.

In the case of `CN(C)C(=O)C(Cc1ccccc1)NC(=O)[C@H]1O[C@@H]1C(=O)NCCc1ccccn1` (stereo partly drawn) [CLIK148, N-(L-3-trans-(2-pyridin-2-yl-ethylcarbamoyl)-oxirane-2-carbonyl)-L-Phe-dimethylamide], the “Inactivation Rate” value (CatL [5]; CLIK148, pH 4, 0.44 µM (440 nM)) is reported as 0.0004006 per second and 0.0003231 per second and 0.0004659 per second, the “Inactivation Rate” value (CatL [5]; CLIK148, pH 4, 0.99 µM (990 nM)) is reported as 0.0009097 per second and 0.0007894 per second and 0.0009283 per second and the “Inactivation Rate” value (CatL [5]; CLIK148, pH 4, 1.48 µM (1480 nM)) is reported as 0.00137 per second and 0.001226 per second and 0.001313 per second. The “Inactivation Rate” value (CatL [5]; CLIK148, pH 4, 2.22 µM (2220 nM)) was 0.001929 per second and 0.00189 per second and 0.001923 per second, the “Inactivation Rate” value (CatL [5]; CLIK148, pH 4, 3.33 µM (3330 nM)) was 0.00288 per second and 0.002823 per second and 0.002796 per second and the “Inactivation Rate” value (CatL [5]; CLIK148, pH 4, 5.00 µM (5000 nM)) was 0.004395 per second and 0.004358 per second and 0.004463 per second. For the same compound, the “Inactivation Rate” value (CatL [5]; CLIK148, pH 6, 0.44 µM (440 nM)) was 0.000984 per second and 0.001005 per second and 0.00104 per second, the “Inactivation Rate” value (CatL [5]; CLIK148, pH 6, 0.66 µM (660 nM)) was 0.001629 per second and 0.001484 per second and 0.001519 per second and the “Inactivation Rate” value (CatL [5]; CLIK148, pH 6, 0.99 µM (990 nM)) was 0.002031 per second and 0.002049 per second and 0.002115 per second. The “Inactivation Rate” value (CatL [5]; CLIK148, pH 6, 1.48 µM (1480 nM)) was 0.002988 per second and 0.003179 per second and 0.003258 per second, the “Inactivation Rate” value (CatL [5]; CLIK148, pH 6, 2.22 µM (2220 nM)) was 0.004844 per second and 0.004638 per second and 0.004732 per second and the “Inactivation Rate” value (CatL [5]; CLIK148, pH 6, 3.33 µM (3330 nM)) was 0.00752 per second and 0.006254 per second and 0.007241 per second. For the same compound, the “Inactivation Rate” value (CatL [5]; CLIK148, pH 6, 5.00 µM (5000 nM)) was 0.01516 per second and 0.01256 per second and 0.01191 per second, the “ΔTm (for CatL), 2:1 compound to protein mixing ratio” value (CatL [2]; 5 µM CatL, pH 5.0, 2% DMSO, 2:1) was 13,8 ± 0,1 °C and 13.8 °C and the “ΔTm (for CatL), 20:1 compound to protein mixing ratio” value (CatL [2]; 5 µM CatL, pH 5.0, 2% DMSO, 20:1) was 13,9 ± 0,2 °C and 13.9 °C. The “2:1, Tm average (CatL)” value (CatL [2]) was 76.9 °C, the “20:1, Tm average (CatL)” value (CatL [2]) was 77 °C and the “ΔTm [K] for CatL, 2:1 ratio” value (CatL [2]; Table S1, 2:1 ratio) was 13.8 ± 0.1 K. It also gave an EC50 [3, 8] of 282 nM, an EC50 [3, 9] of 2780 nM and a viability at 48 h, 1e-05 µM [6] of 99.3%. The viability at 48 h, 0.0001 µM [6] was 100%, the viability at 48 h, 0.001 µM [6] was 98% and the viability at 48 h, 0.01 µM [6] was 101%. The viability at 48 h, 0.1 µM [6] was 98.3%, the viability at 48 h, 1 µM [6] was 104% and the viability at 48 h, 10 µM [6] was 110%. For the same compound, the “2:1, Tm average (Mpro)” value (SARS-CoV-2 Mpro) was 54.8 °C.
